{
  "source": "patent US8420633B2",
  "about": "(Hoffmann-La Roche Inc., priority 2010, dated 2013)",
  "note": "Where a name gives a salt, the structure may show the parent alone.",
  "data": [
    {"molecular_target": "T1, human V1a receptor (Homo sapiens, UniProt P37288)", "T1 construct": "expressed in transfected cells; host or cells: HEK293 cells, transiently transfected; membranes prepared", "T1 sequence (P37288 whole entry)": "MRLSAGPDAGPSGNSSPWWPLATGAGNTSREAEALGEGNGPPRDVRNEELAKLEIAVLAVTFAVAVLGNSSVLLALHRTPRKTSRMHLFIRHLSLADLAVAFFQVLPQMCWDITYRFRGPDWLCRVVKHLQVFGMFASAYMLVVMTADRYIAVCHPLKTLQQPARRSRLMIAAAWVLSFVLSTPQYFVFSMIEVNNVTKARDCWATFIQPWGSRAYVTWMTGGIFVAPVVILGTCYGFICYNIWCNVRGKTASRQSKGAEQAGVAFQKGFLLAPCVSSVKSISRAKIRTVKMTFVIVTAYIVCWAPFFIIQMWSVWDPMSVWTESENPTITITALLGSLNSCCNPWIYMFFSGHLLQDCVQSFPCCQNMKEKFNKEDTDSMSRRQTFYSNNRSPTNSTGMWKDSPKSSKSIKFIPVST", "test": "human V1a receptor binding (3H-Vasopressin SPA, HEK293 membranes)", "conditions": "not given", "experimental": "(§1) The human V1a receptor was cloned by RT-PCR from total human liver RNA. The coding sequence was subcloned in an expression vector after sequencing to confirm the identity of the amplified sequence. […] Cell membranes were prepared from HEK293 cells transiently transfected with the expression vector and grown in 20 liter fermenters with the following protocol.\n(§2) 50 g of cells are resuspended in 30 ml freshly prepared ice cold Lysis buffer (50 mM HEPES, 1 mM EDTA, 10 mM magnesium dichloride adjusted to pH=7.4+complete cocktail of protease inhibitor (Roche Diagnostics)). Homogenized with Polytron for 1 min and sonicated on ice for 2×2 minutes at 80% intensity (Vibracell sonicator). The preparation is centrifuged 20 min at 500 g at 4° C., the pellet is discarded and the supernatant centrifuged 1 hour at 43,000 g at 4° C. (19,000 rpm). The pellet is resuspended in 12.5 ml Lysis buffer+12.5 ml sucrose 20% and homogenized using a Polytron for 1-2 min. The protein concentration is determined by the Bradford method and aliquots are stored at −80° C. until use. For binding studies 60 mg Yttrium silicate SPA beads (Amersham®) are mixed with an aliquot of membrane in binding buffer (50 mM Tris, 120 mM sodium chloride, 5 mM potassium chloride, 2 mM calcium dichloride, 10 mM magnesium dichloride) for 15 minutes with mixing. 50 μl of bead/membrane mixture is then added to each well of a 96 well plate, followed by 50 μl of 4 nM 3H-Vasopressin (American Radiolabeled Chemicals). For total binding measurement 100 μl of binding buffer are added to the respective wells, for non-specific binding 100 μl of 8.4 mM cold vasopressin and for compound testing 100 μl of a serial dilution of each compound in 2% dimethyl sulfoxide. The plate is incubated 1 h at room temperature, centrifuged 1 min at 1000 g and counted on a Packard Top-Count. Non-specific binding counts are subtracted from each well and data is normalized to the maximum specific binding set at 100%. To calculate an IC50 the curve is fitted using a non-linear regression model (XLfit) and the Ki is calculated using the Cheng-Prussoff equation.", "units": {"Ki": "nM"}, "values": [
      {"smiles": "CC(C)(C)OC(=O)N1Cc2cc(Cl)ccc2-n2c(nnc2[C@H]2CC[C@H](c3cccc(C#N)c3)CC2)C1", "note": "[Example 25, trans-8-Chloro-1-[4-(3-cyano-phenyl)-cyclohexyl]-4H,6H-2,3,5,10b-tetraaza-benzo[e]azulene-5-carboxylic acid tert-butyl ester]", "Ki": 7.08},
      {"smiles": "CN1Cc2cc(Cl)ccc2-n2c(nnc2[C@H]2CC[C@H](c3ccccc3)CC2)C1", "note": "[Example 3, trans-8-Chloro-5-methyl-1-(4-phenyl-cyclohexyl)-5,6-dihydro-4H-2,3,5,10b-tetraaza-benzo[e]azulene]", "Ki": 0.794}
    ]},
    {"molecular_target": "T1, human V1a receptor", "test": "human V1a receptor binding (3H-Vasopressin SPA, HEK293 membranes)", "conditions": "3H-Vasopressin displacement, membranes of HEK293 cells transiently transfected with human V1a; Ki from IC50 by Cheng-Prussoff; read-out: pKi (hV1a) (converted)", "experimental": "as §1, §2", "units": {"Ki": "nM"}, "values": [
      {"smiles": "Fc1ccc([C@H]2CC[C@H](c3nnc4n3-c3ccc(Cl)cc3CNC4)CC2)cc1", "note": "[Example 11, trans-8-Chloro-1-[4-(4-fluoro-phenyl)-cyclohexyl]-5,6-dihydro-4H-2,3,5,10b-tetraaza-benzo[e]azulene hydrochloride]", "Ki": 6.31},
      {"smiles": "OCCN1Cc2cc(Cl)ccc2-n2c(nnc2[C@H]2CC[C@H](c3ccccc3)CC2)C1", "note": "[Example 32, trans-2-[8-Chloro-1-(4-phenyl-cyclohexyl)-4H,6H-2,3,5,10b-tetraaza-benzo[e]azulen-5-yl]-ethanol]", "Ki": 1.41},
      {"smiles": "Cc1ccccc1[C@H]1CC[C@@H](c2nnc3n2-c2ccccc2CN(C)C3)CC1", "note": "[Example 6, cis-5-Methyl-1-(4-o-tolyl-cyclohexyl)-5,6-dihydro-4H-2,3,5,10b-tetraaza-benzo[e]azulene]", "Ki": 339},
      {"smiles": "CC(C)(C)OC(=O)N1Cc2cc(Cl)ccc2-n2c(nnc2[C@H]2CC[C@H](c3ccccc3)CC2)C1", "note": "[Example 1, trans-8-Chloro-1-(4-phenyl-cyclohexyl)-4H,6H-2,3,5,10b-tetraaza-benzo[e]azulene-5-carboxylic acid tert-butyl ester]", "Ki": 6.46},
      {"smiles": "Fc1ccc([C@H]2CC[C@@H](c3nnc4n3-c3ccc(Cl)cc3CNC4)CC2)cc1", "note": "[Example 8, cis-8-Chloro-1-[4-(4-fluoro-phenyl)-cyclohexyl]-5,6-dihydro-4H-2,3,5,10b-tetraaza-benzo[e]azulene hydrochloride]", "Ki": 302},
      {"smiles": "CN1Cc2cc(Cl)ccc2-n2c(nnc2[C@H]2CC[C@H](c3ccc(F)cc3)CC2)C1", "note": "[Example 12, trans-8-Chloro-1-[4-(4-fluoro-phenyl)-cyclohexyl]-5-methyl-5,6-dihydro-4H-2,3,5,10b-tetraaza-benzo[e]azulene]", "Ki": 2.19},
      {"smiles": "Cc1ccccc1[C@H]1CC[C@@H](c2nnc3n2-c2ccc(Cl)cc2CN(C)C3)CC1", "note": "[Example 4, cis-8-Chloro-5-methyl-1-(4-o-tolyl-cyclohexyl)-5,6-dihydro-4H-2,3,5,10b-tetraaza-benzo[e]azulene]", "Ki": 16.2},
      {"smiles": "CN1Cc2cc(Cl)ccc2-n2c(nnc2[C@H]2CC[C@@H](c3ccc(F)cc3)CC2)C1", "note": "[Example 9, cis-8-Chloro-1-[4-(4-fluoro-phenyl)-cyclohexyl]-5-methyl-5,6-dihydro-4H-2,3,5,10b-tetraaza-benzo[e]azulene]", "Ki": 30.2},
      {"smiles": "CN1Cc2cc(Cl)ccc2-n2c(nnc2[C@H]2CC[C@H](c3cccc(C#N)c3)CC2)C1", "note": "[Example 27, trans-3-[4-(8-Chloro-5-methyl-5,6-dihydro-4H-2,3,5,10b-tetraaza-benzo[e]azulen-1-yl)-cyclohexyl]-benzonitrile]", "Ki": 2.69},
      {"smiles": "CC(=O)N1Cc2cc(Cl)ccc2-n2c(nnc2[C@H]2CC[C@H](c3ccccc3)CC2)C1", "note": "[Example 28, trans-1-[8-Chloro-1-(4-phenyl-cyclohexyl)-4H,6H-2,3,5,10b-tetraaza-benzo[e]azulen-5-yl]-ethanone]", "Ki": 1.29},
      {"smiles": "COc1ccc(F)cc1[C@H]1CC[C@H](c2nnc3n2-c2ccc(Cl)cc2CN(C)C3)CC1", "note": "[Example 24, trans-8-Chloro-1-[4-(5-fluoro-2-methoxy-phenyl)-cyclohexyl]-5-methyl-5,6-dihydro-4H-2,3,5,10b-tetraaza-benzo[e]azulene]", "Ki": 5.75},
      {"smiles": "CS(=O)(=O)N1Cc2cc(Cl)ccc2-n2c(nnc2[C@H]2CC[C@H](c3ccccc3)CC2)C1", "note": "[Example 29, trans-8-Chloro-5-methanesulfonyl-1-(4-phenyl-cyclohexyl)-5,6-dihydro-4H-2,3,5,10b-tetraaza-benzo[e]azulene]", "Ki": 1.82},
      {"smiles": "Clc1ccc2c(c1)CN(c1ccccn1)Cc1nnc([C@H]3CC[C@H](c4ccccc4)CC3)n1-2", "note": "[Example 33, trans-8-Chloro-1-(4-phenyl-cyclohexyl)-5-pyridin-2-yl-5,6-dihydro-4H-2,3,5,10b-tetraaza-benzo[e]azulene]", "Ki": 8.91},
      {"smiles": "Cc1ccccc1[C@H]1CC[C@H](c2nnc3n2-c2ccc(Cl)cc2CN(C)C3)CC1", "note": "[Example 5, trans-8-Chloro-5-methyl-1-(4-o-tolyl-cyclohexyl)-5,6-dihydro-4H-2,3,5,10b-tetraaza-benzo[e]azulene]", "Ki": 4.27},
      {"smiles": "CN1Cc2cc(Cl)ccc2-n2c(nnc2[C@H]2CC[C@H](c3cccc(OC(F)(F)F)c3)CC2)C1", "note": "[Example 15, trans-8-Chloro-5-methyl-1-[4-(3-trifluoromethoxy-phenyl)-cyclohexyl]-5,6-dihydro-4H-2,3,5,10b-tetraaza-benzo[e]azulene]", "Ki": 10.2},
      {"smiles": "CN1Cc2cc(Cl)ccc2-n2c(nnc2[C@H]2CC[C@H](c3cccc4ccccc43)CC2)C1", "note": "[Example 21, trans-8-Chloro-5-methyl-1-(4-naphthalen-1-yl-cyclohexyl)-5,6-dihydro-4H-2,3,5,10b-tetraaza-benzo[e]azulene]", "Ki": 7.59},
      {"smiles": "Fc1cccc([C@H]2CC[C@H](c3nnc4n3-c3ccc(Cl)cc3CNC4)CC2)c1Cl", "note": "[Example 17, trans-8-Chloro-1-[4-(2-chloro-3-fluoro-phenyl)-cyclohexyl]-5,6-dihydro-4H-2,3,5,10b-tetraaza-benzo[e]azulene hydrochloride]", "Ki": 15.1},
      {"smiles": "CC(C)(C)OC(=O)N1Cc2cc(Cl)ccc2-n2c(nnc2[C@H]2CC[C@H](c3cccc(OC(F)(F)F)c3)CC2)C1", "note": "[Example 13, trans-8-Chloro-1-[4-(3-trifluoromethoxy-phenyl)-cyclohexyl]-4H,6H-2,3,5,10b-tetraaza-benzo[e]azulene-5-carboxylic acid tert-butyl ester]", "Ki": 18.2},
      {"smiles": "Clc1ccc2c(c1)CN(Cc1ccccn1)Cc1nnc([C@H]3CC[C@H](c4ccccc4)CC3)n1-2", "note": "[Example 31, trans-8-Chloro-1-(4-phenyl-cyclohexyl)-5-pyridin-2-ylmethyl-5,6-dihydro-4H-2,3,5,10b-tetraaza-benzo[e]azulene]", "Ki": 2.4},
      {"smiles": "CC(C)N1Cc2cc(Cl)ccc2-n2c(nnc2[C@H]2CC[C@H](c3ccccc3)CC2)C1", "note": "[Example 30, trans-8-Chloro-5-isopropyl-1-(4-phenyl-cyclohexyl)-5,6-dihydro-4H-2,3,5,10b-tetraaza-benzo[e]azulene]", "Ki": 1.91},
      {"smiles": "COc1ccc(F)cc1[C@H]1CC[C@H](c2nnc3n2-c2ccc(Cl)cc2CNC3)CC1", "note": "[Example 23, trans-8-Chloro-1-[4-(5-fluoro-2-methoxy-phenyl)-cyclohexyl]-5,6-dihydro-4H-2,3,5,10b-tetraaza-benzo[e]azulene hydrochloride]", "Ki": 42.7},
      {"smiles": "CC(C)(C)OC(=O)N1Cc2cc(Cl)ccc2-n2c(nnc2[C@H]2CC[C@H](c3ccc(F)cc3)CC2)C1", "note": "[Example 10]", "Ki": 4.68},
      {"smiles": "Clc1ccc2c(c1)CNCc1nnc([C@H]3CC[C@H](c4ccccc4)CC3)n1-2", "note": "[Example 2, trans-8-Chloro-1-(4-phenyl-cyclohexyl)-5,6-dihydro-4H-2,3,5,10b-tetraaza-benzo[e]azulene hydrochloride]", "Ki": 2.09},
      {"smiles": "CC(C)(C)OC(=O)N1Cc2cc(Cl)ccc2-n2c(nnc2[C@H]2CC[C@@H](c3ccc(F)cc3)CC2)C1", "note": "[Example 7]", "Ki": 52.5},
      {"smiles": "Clc1ccc2c(c1)CNCc1nnc([C@H]3CC[C@H](c4cccc5ccccc54)CC3)n1-2", "note": "[Example 20, trans-8-Chloro-1-(4-naphthalen-1-yl-cyclohexyl)-5,6-dihydro-4H-2,3,5,10b-tetraaza-benzo[e]azulene hydrochloride]", "Ki": 20.4},
      {"smiles": "N#Cc1cccc([C@H]2CC[C@H](c3nnc4n3-c3ccc(Cl)cc3CNC4)CC2)c1", "note": "[Example 26, trans-3-[4-(8-Chloro-5,6-dihydro-4H-2,3,5,10b-tetraaza-benzo[e]azulen-1-yl)-cyclohexyl]-benzonitrile hydrochloride]", "Ki": 32.4},
      {"smiles": "CN1Cc2cc(Cl)ccc2-n2c(nnc2[C@H]2CC[C@H](c3cccc(F)c3Cl)CC2)C1", "note": "[Example 18, trans-8-Chloro-1-[4-(2-chloro-3-fluoro-phenyl)-cyclohexyl]-5-methyl-5,6-dihydro-4H-2,3,5,10b-tetraaza-benzo[e]azulene]", "Ki": 3.09},
      {"smiles": "FC(F)(F)Oc1cccc([C@H]2CC[C@H](c3nnc4n3-c3ccc(Cl)cc3CNC4)CC2)c1", "note": "[Example 14, trans-8-Chloro-1-[4-(3-trifluoromethoxy-phenyl)-cyclohexyl]-5,6-dihydro-4H-2,3,5,10b-tetraaza-benzo[e]azulene hydrochloride]", "Ki": 57.5}
    ]}
  ]
}
